Measured values reported in ChEMBL document CHEMBL1938259, “Novel substituted pyrimidines as HCV replication (replicase) inhibitors” (Bioorg Med Chem Lett, 2012).

Columns and labels:
Canis familiaris = test: AUC (0 to 24 hrs) in dog at 2 mg/kg, po; type: ADME, organism-based, Canis lupus familiaris, Plasma; design: time < 24 hr, dose 2 mg/kg, route oral; details: in vivo
Rattus norvegicus = test: AUC (0 to 24 hrs) in rat at 10 mg/kg, po and 2 mg/kg, iv; type: ADME, organism-based, Plasma; details: in vivo

AUC (Canis familiaris) [µM·h] | AUC (Rattus norvegicus) [µM·h] | SMILES
2.2 | 1.6 | Nc1nc(Cl)c(C#Cc2ccsc2)c(N[C@@H]2C[C@H](CO)[C@@H](O)[C@H]2O)n1
 | 0.6 | Nc1nc(Cl)c(C#Cc2nccs2)c(N[C@@H]2C[C@H](CO)[C@@H](O)[C@H]2O)n1
